Results reported in ChEMBL document CHEMBL1150266, “Design and synthesis of conformationally constrained glucagon-like peptide-1 derivatives with increased plasma stability and prolonged in vivo activity” (J Med Chem, 2008).
Where a SMILES comes first, the peptide text is derived from it. Bridges are numbered along the chain shown (N, C = ends). [ ]: non-standard residue; d: D form. Phe(4-COOH) = N[C@@H](Cc1ccc(C(=O)O)cc1)C(=O)O

Assays:
Plasma = test: Stability in human plasma at 1000 ng/mL at 37 degC; format: ADME, cell-free
[1] = molecular target: T1, Glucagon-like peptide 1 receptor (Homo sapiens, UniProt P43220); test: Displacement of [125I]GLP1 from human GLP1R expressed in CHOK1 cells; format: cell-based, CHO-K1
[2] = molecular target: T1, Glucagon-like peptide 1 receptor; test: Agonist activity at human GLP1R expressed in CHO cells assessed as increase in cAMP level by cAMP-response element/luciferase activation assay; format: functional, cell-based

T1 sequence (P43220 whole entry): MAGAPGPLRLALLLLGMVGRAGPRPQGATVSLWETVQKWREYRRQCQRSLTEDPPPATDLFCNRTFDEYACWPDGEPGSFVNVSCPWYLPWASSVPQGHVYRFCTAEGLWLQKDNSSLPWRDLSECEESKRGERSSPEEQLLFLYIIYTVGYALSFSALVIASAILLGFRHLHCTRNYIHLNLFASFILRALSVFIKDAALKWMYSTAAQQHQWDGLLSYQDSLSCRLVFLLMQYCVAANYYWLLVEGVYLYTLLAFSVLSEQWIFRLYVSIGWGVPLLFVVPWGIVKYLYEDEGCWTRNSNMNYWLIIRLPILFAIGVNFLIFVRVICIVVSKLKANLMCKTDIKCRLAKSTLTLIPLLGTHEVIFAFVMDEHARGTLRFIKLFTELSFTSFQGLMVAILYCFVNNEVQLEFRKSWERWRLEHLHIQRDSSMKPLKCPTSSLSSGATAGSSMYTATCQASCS

Compound	Stability (Plasma)	IC50 [1] [nM]	EC50 [2] [nM]
CC[C@H](C)[C@H](NC(=O)[C@H](Cc1ccccc1)NC(=O)[C@H](CCC(=O)O)NC(=O)[C@H](CCCCN)NC(=O)[C@H](C)NC(=O)[C@H](C)NC(=O)[C@H](CCC(N)=O)NC(=O)C(C)(C)NC(=O)[C@H](CCC(=O)O)NC(=O)[C@H](CC(C)C)NC(=O)[C@H](Cc1ccc(O)cc1)NC(=O)[C@H](CO)NC(=O)[C@H](CO)NC(=O)[C@@H](NC(=O)[C@H](CC(=O)O)NC(=O)[C@H](CO)NC(=O)[C@@H](NC(=O)[C@H](Cc1ccccc1)NC(=O)[C@@H](NC(=O)CNC(=O)[C@H](CCC(=O)O)NC(=O)CNC(=O)[C@@H](N)Cc1c[nH]cn1)[C@@H](C)O)[C@@H](C)O)C(C)C)C(=O)N[C@@H](C)C(=O)N[C@@H](Cc1c[nH]c2ccccc12)C(=O)N[C@@H](CC(C)C)C(=O)N[C@H](C(=O)N[C@@H](CCCCN)C(=O)NCC(=O)N[C@@H](CCCNC(=N)N)C(=O)NCC(N)=O)C(C)C	Stable	2.9	
CC[C@H](C)[C@@H]1NC(=O)[C@H](Cc2ccccc2)NC(=O)[C@H](CCC(=O)O)NC(=O)[C@@H](NC(=O)[C@H](C)NC(=O)[C@H](C)NC(=O)[C@H](CCC(N)=O)NC(=O)CNC(=O)[C@H](CCC(=O)O)NC(=O)[C@H](CC(C)C)NC(=O)[C@H](Cc2ccc(O)cc2)NC(=O)[C@H](CO)NC(=O)[C@H](CO)NC(=O)[C@@H](NC(=O)[C@H](CC(=O)O)NC(=O)[C@H](CO)NC(=O)[C@@H](NC(=O)[C@H](Cc2ccccc2)NC(=O)[C@@H](NC(=O)CNC(=O)[C@H](CCC(=O)O)NC(=O)CNC(=O)[C@@H](N)Cc2cnc[nH]2)[C@@H](C)O)[C@@H](C)O)C(C)C)CCC(=O)NCCCC[C@@H](C(=O)N[C@@H](Cc2c[nH]c3ccccc23)C(=O)N[C@@H](CC(C)C)C(=O)N[C@H](C(=O)N[C@@H](CCCCN)C(=O)NCC(=O)N[C@@H](CCCNC(=N)N)C(=O)NCC(N)=O)C(C)C)NC1=O		16	0.024
CC[C@H](C)[C@H](NC(=O)[C@H](Cc1ccccc1)NC(=O)[C@H](CCC(=O)O)NC(=O)[C@@H]1CCCCNC(=O)CC[C@H](NC(=O)[C@H](CCC(=O)O)NC(=O)[C@H](CC(C)C)NC(=O)[C@H](Cc2ccc(O)cc2)NC(=O)[C@H](CO)NC(=O)[C@H](CO)NC(=O)[C@@H](NC(=O)[C@H](CC(=O)O)NC(=O)[C@H](CO)NC(=O)[C@@H](NC(=O)[C@H](Cc2ccccc2)NC(=O)[C@@H](NC(=O)CNC(=O)[C@H](CCC(=O)O)NC(=O)CNC(=O)[C@@H](N)Cc2c[nH]cn2)[C@@H](C)O)[C@@H](C)O)C(C)C)CC(=O)N[C@@H](CCC(N)=O)C(=O)N[C@@H](C)C(=O)N[C@@H](C)C(=O)N1)C(=O)N[C@@H](C)C(=O)N[C@@H](Cc1c[nH]c2ccccc12)C(=O)N[C@@H](CC(C)C)C(=O)N[C@H](C(=O)N[C@@H](CCCCN)C(=O)NCC(=O)N[C@@H](CCCNC(=N)N)C(=O)NCC(N)=O)C(C)C		> 500	1.8
CC[C@H](C)[C@H](NC(=O)[C@H](Cc1ccccc1)NC(=O)[C@H](CCC(=O)O)NC(=O)[C@@H]1CCCCNC(=O)CCC[C@H](NC(=O)[C@H](CCC(=O)O)NC(=O)[C@H](CC(C)C)NC(=O)[C@H](Cc2ccc(O)cc2)NC(=O)[C@H](CO)NC(=O)[C@H](CO)NC(=O)[C@@H](NC(=O)[C@H](CC(=O)O)NC(=O)[C@H](CO)NC(=O)[C@@H](NC(=O)[C@H](Cc2ccccc2)NC(=O)[C@@H](NC(=O)CNC(=O)[C@H](CCC(=O)O)NC(=O)CNC(=O)[C@@H](N)Cc2c[nH]cn2)[C@@H](C)O)[C@@H](C)O)C(C)C)C(=O)N[C@@H](CCC(N)=O)C(=O)N[C@@H](C)C(=O)N[C@@H](C)C(=O)N1)C(=O)N[C@@H](C)C(=O)N[C@@H](Cc1c[nH]c2ccccc12)C(=O)N[C@@H](CC(C)C)C(=O)N[C@H](C(=O)N[C@@H](CCCCN)C(=O)NCC(=O)N[C@@H](CCCNC(=N)N)C(=O)NCC(N)=O)C(C)C		6.2	0.004
CC[C@H](C)[C@H](NC(=O)[C@H](Cc1ccccc1)NC(=O)[C@H](CCC(=O)O)NC(=O)[C@H](CCCCN)NC(=O)[C@H](C)NC(=O)[C@H](C)NC(=O)[C@H](CCC(N)=O)NC(=O)[C@@H]1CCCCNC(=O)CC[C@H](NC(=O)[C@H](CO)NC(=O)[C@@H](NC(=O)[C@H](CC(=O)O)NC(=O)[C@H](CO)NC(=O)[C@@H](NC(=O)[C@H](Cc2ccccc2)NC(=O)[C@@H](NC(=O)CNC(=O)[C@H](CCC(=O)O)NC(=O)CNC(=O)[C@@H](N)Cc2cnc[nH]2)[C@@H](C)O)[C@@H](C)O)C(C)C)C(=O)N[C@@H](Cc2ccc(O)cc2)C(=O)N[C@@H](CC(C)C)C(=O)N[C@@H](CCC(=O)O)C(=O)N1)C(=O)N[C@@H](C)C(=O)N[C@@H](Cc1c[nH]c2ccccc12)C(=O)N[C@@H](CC(C)C)C(=O)N[C@H](C(=O)N[C@@H](CCCCN)C(=O)NCC(=O)N[C@@H](CCCNC(=N)N)C(=O)NCC(N)=O)C(C)C (H-HGEGTFTSDVSEYLEKQAAKEFIAWLVKGRG-NH2; lactam 12-16)	Stable	3.6	0.006
CC[C@H](C)[C@H](NC(=O)[C@H](Cc1ccccc1)NC(=O)[C@H](CCC(=O)O)NC(=O)[C@H](CCCCN)NC(=O)[C@H](C)NC(=O)[C@H](C)NC(=O)[C@@H]1CCCCNC(=O)CC[C@H](NC(=O)[C@H](CO)NC(=O)[C@H](CO)NC(=O)[C@@H](NC(=O)[C@H](CC(=O)O)NC(=O)[C@H](CO)NC(=O)[C@@H](NC(=O)[C@H](Cc2ccccc2)NC(=O)[C@@H](NC(=O)CNC(=O)[C@H](CCC(=O)O)NC(=O)CNC(=O)[C@@H](N)Cc2c[nH]cn2)[C@@H](C)O)[C@@H](C)O)C(C)C)C(=O)N[C@@H](CC(C)C)C(=O)N[C@@H](CCC(=O)O)C(=O)NCC(=O)N1)C(=O)N[C@@H](C)C(=O)N[C@@H](Cc1c[nH]c2ccccc12)C(=O)N[C@@H](CC(C)C)C(=O)N[C@H](C(=O)N[C@@H](CCCCN)C(=O)NCC(=O)N[C@@H](CCCNC(=N)N)C(=O)NCC(N)=O)C(C)C (H-HGEGTFTSDVSSELEGKAAKEFIAWLVKGRG-NH2; lactam 13-17)		17	0.077
CC[C@H](C)[C@H](NC(=O)[C@H](Cc1ccccc1)NC(=O)[C@H](CCC(=O)O)NC(=O)[C@@H]1CCCCNC(=O)C[C@H](NC(=O)[C@H](CCC(=O)O)NC(=O)[C@H](CC(C)C)NC(=O)[C@H](Cc2ccc(O)cc2)NC(=O)[C@H](CO)NC(=O)[C@H](CO)NC(=O)[C@@H](NC(=O)[C@H](CC(=O)O)NC(=O)[C@H](CO)NC(=O)[C@@H](NC(=O)[C@H](Cc2ccccc2)NC(=O)[C@@H](NC(=O)CNC(=O)[C@H](CCC(=O)O)NC(=O)CNC(=O)[C@@H](N)Cc2c[nH]cn2)[C@@H](C)O)[C@@H](C)O)C(C)C)C(=O)N[C@@H](CCC(N)=O)C(=O)N[C@@H](C)C(=O)N[C@@H](C)C(=O)N1)C(=O)N[C@@H](C)C(=O)N[C@@H](Cc1c[nH]c2ccccc12)C(=O)N[C@@H](CC(C)C)C(=O)N[C@H](C(=O)N[C@@H](CCCCN)C(=O)NCC(=O)N[C@@H](CCCNC(=N)N)C(=O)NCC(N)=O)C(C)C (H-HGEGTFTSDVSSYLEDQAAKEFIAWLVKGRG-NH2; lactam 16-20)		64	0.14
CC(C)C[C@H](NC(=O)[C@H](Cc1ccc(O)cc1)NC(=O)[C@H](CO)NC(=O)[C@H](CO)NC(=O)[C@@H](NC(=O)[C@H](CC(=O)O)NC(=O)[C@H](CO)NC(=O)[C@@H](NC(=O)[C@H](Cc1ccccc1)NC(=O)[C@@H](NC(=O)CNC(=O)[C@H](CCC(=O)O)NC(=O)CNC(=O)[C@@H](N)Cc1c[nH]cn1)[C@@H](C)O)[C@@H](C)O)C(C)C)C(=O)N[C@@H](CCC(=O)O)C(=O)NCC(=O)N[C@@H](CCC(N)=O)C(=O)N[C@@H](C)C(=O)N[C@H]1CCC(=O)NCCCC[C@@H](C(=O)N[C@@H](C)C(=O)N[C@@H](Cc2c[nH]c3ccccc23)C(=O)N[C@@H](CC(C)C)C(=O)N[C@H](C(=O)N[C@@H](CCCCN)C(=O)NCC(=O)N[C@@H](CCCNC(=N)N)C(=O)NCC(N)=O)C(C)C)NC(=O)[C@H](Cc2ccccc2)NC(=O)[C@H](CCC(=O)O)NC(=O)[C@H](CCCCN)NC1=O (H-HGEGTFTSDVSSYLEGQAEKEFKAWLVKGRG-NH2; lactam 19-23)		> 1000	15
CC[C@H](C)[C@H](NC(=O)[C@H](Cc1ccccc1)NC(=O)[C@H](CCC(=O)O)NC(=O)[C@@H]1CCC(=O)NCCCC[C@H](NC(=O)[C@H](CCC(=O)O)NC(=O)[C@H](CC(C)C)NC(=O)[C@H](Cc2ccc(O)cc2)NC(=O)[C@H](CO)NC(=O)[C@H](CO)NC(=O)[C@@H](NC(=O)[C@H](CC(=O)O)NC(=O)[C@H](CO)NC(=O)[C@@H](NC(=O)[C@H](Cc2ccccc2)NC(=O)[C@@H](NC(=O)CNC(=O)[C@H](CCC(=O)O)NC(=O)CNC(=O)[C@@H](N)Cc2c[nH]cn2)[C@@H](C)O)[C@@H](C)O)C(C)C)C(=O)N[C@@H](CCC(N)=O)C(=O)N[C@@H](C)C(=O)N[C@@H](C)C(=O)N1)C(=O)N[C@@H](C)C(=O)N[C@@H](Cc1c[nH]c2ccccc12)C(=O)N[C@@H](CC(C)C)C(=O)N[C@H](C(=O)N[C@@H](CCCCN)C(=O)NCC(=O)N[C@@H](CCCNC(=N)N)C(=O)NCC(N)=O)C(C)C (H-HGEGTFTSDVSSYLEKQAAEEFIAWLVKGRG-NH2; lactam 16-20)		2.7	0.008
CC[C@H](C)[C@H](NC(=O)[C@H](Cc1ccccc1)NC(=O)[C@H](CCC(=O)O)NC(=O)[C@@H]1CCCCNC(=O)c2ccc(cc2)C[C@H](NC(=O)[C@H](CO)NC(=O)[C@H](CO)NC(=O)[C@@H](NC(=O)[C@H](CC(=O)O)NC(=O)[C@H](CO)NC(=O)[C@@H](NC(=O)[C@H](Cc2ccccc2)NC(=O)[C@@H](NC(=O)CNC(=O)[C@H](CCC(=O)O)NC(=O)CNC(=O)[C@@H](N)Cc2c[nH]cn2)[C@@H](C)O)[C@@H](C)O)C(C)C)C(=O)N[C@@H](CC(C)C)C(=O)N[C@@H](CCC(=O)O)C(=O)NCC(=O)N[C@@H](CCC(N)=O)C(=O)N[C@@H](C)C(=O)N[C@@H](C)C(=O)N1)C(=O)N[C@@H](C)C(=O)N[C@@H](Cc1c[nH]c2ccccc12)C(=O)N[C@@H](CC(C)C)C(=O)N[C@H](C(=O)N[C@@H](CCCCN)C(=O)NCC(=O)N[C@@H](CCCNC(=N)N)C(=O)NCC(N)=O)C(C)C (H-HGEGTFTSDVSS[Phe(4-COOH)]LEGQAAKEFIAWLVKGRG-NH2; lactam 13-20)		2000	9
